Patent US7247621B2, “Antiviral phosphonate compounds and methods therefor” (Valeant Research & Development, priority 2002, dated 2007)

Legend:
[1] = target: HCV RNA dependent RNA polymerase (RdRp), NS5B (Hepatitis C virus genotype 1b, UniProt P26663); experiment: Incorporation of phosphonate ATP analogs into RNA product by HCV RdRp (gel, extension of [33P]GpC); format: biochemical; conditions: for extension of [33P]GpC by HCV RdRp (incorporation into RNA product): 1 mM nucleotide, 10 μM [33P]GpC, 10 μM 5′-AAAAAAAUGC-3′ template, 2.5 μM HCV RdRp, FIG. 8
Experimental: Among other nucleotide analogs (data not shown), two exemplary phosphonate analogs of ATP, 5′-deoxy-5′-phosphonate (5′d-ATP) and 5′-deoxy-5′-methylene phosphonate (5′d-CH2-ATP), were tested for inhibition and/or incorporation into an RNA product by the HCV RNA dependent RNA polymerase (RdRp). The incorporation reactions included 1 mM of the phosphonate analog or ATP, 10 μM of [^33P]GpC, 10 μM of 5′-AAAAAAAUGC-3′, and 2.5 μM of HCV RdRp in a buffer that contained 50 mM Hepes, pH 7.3, 10 mM DTT, and 5 mM MgCl2. The RNA products were resolved on a 25% polyacrylamide-7M urea-TBE gel. […] The incorporation of 5′d-CH2-ATP is less efficient than that of ATP by 10-fold. To look for further elongation after incorporation of ATP or 5′d-CH2-ATP, the same experiment was performed in the presence of additional UTP (1 mM).
Exemplary results of such tests are depicted in the autoradiograph of FIG. 8 showing RNA products from incorporations of ATP and phosphonate analogs of ATP by HCV RdRp. Each reaction contained 2.5 μM of RdRp, 10 μM of [^33P]GpC, 10 μM template, and the following nucleotides (1 mM): lane 1, none; lane 2, ATP; lane 3,5′-deoxy-5′-phosphonate ATP; lane 4,5′-deoxy-5′-methylene phosphonate ATP; lane 5, ATP and UTP; lane 6,5′-deoxy-5′-phosphonate ATP and UTP; lane 7,5′-deoxy-5′-methylene phosphonate ATP and UTP. The reaction products were resolved on a 25% polyacrylamide-7 M urea-TBE gel and the gel was scanned on a PhosporImager.

[2] = target: E. coli RNA polymerase (Escherichia coli, UniProt P0A8T7+P0A8V2); conditions: Savochkina et al. Mol. Biol. (Mosk) 1989; cited from earlier work
Chain of E. coli RNA polymerase (P0A8T7 whole entry): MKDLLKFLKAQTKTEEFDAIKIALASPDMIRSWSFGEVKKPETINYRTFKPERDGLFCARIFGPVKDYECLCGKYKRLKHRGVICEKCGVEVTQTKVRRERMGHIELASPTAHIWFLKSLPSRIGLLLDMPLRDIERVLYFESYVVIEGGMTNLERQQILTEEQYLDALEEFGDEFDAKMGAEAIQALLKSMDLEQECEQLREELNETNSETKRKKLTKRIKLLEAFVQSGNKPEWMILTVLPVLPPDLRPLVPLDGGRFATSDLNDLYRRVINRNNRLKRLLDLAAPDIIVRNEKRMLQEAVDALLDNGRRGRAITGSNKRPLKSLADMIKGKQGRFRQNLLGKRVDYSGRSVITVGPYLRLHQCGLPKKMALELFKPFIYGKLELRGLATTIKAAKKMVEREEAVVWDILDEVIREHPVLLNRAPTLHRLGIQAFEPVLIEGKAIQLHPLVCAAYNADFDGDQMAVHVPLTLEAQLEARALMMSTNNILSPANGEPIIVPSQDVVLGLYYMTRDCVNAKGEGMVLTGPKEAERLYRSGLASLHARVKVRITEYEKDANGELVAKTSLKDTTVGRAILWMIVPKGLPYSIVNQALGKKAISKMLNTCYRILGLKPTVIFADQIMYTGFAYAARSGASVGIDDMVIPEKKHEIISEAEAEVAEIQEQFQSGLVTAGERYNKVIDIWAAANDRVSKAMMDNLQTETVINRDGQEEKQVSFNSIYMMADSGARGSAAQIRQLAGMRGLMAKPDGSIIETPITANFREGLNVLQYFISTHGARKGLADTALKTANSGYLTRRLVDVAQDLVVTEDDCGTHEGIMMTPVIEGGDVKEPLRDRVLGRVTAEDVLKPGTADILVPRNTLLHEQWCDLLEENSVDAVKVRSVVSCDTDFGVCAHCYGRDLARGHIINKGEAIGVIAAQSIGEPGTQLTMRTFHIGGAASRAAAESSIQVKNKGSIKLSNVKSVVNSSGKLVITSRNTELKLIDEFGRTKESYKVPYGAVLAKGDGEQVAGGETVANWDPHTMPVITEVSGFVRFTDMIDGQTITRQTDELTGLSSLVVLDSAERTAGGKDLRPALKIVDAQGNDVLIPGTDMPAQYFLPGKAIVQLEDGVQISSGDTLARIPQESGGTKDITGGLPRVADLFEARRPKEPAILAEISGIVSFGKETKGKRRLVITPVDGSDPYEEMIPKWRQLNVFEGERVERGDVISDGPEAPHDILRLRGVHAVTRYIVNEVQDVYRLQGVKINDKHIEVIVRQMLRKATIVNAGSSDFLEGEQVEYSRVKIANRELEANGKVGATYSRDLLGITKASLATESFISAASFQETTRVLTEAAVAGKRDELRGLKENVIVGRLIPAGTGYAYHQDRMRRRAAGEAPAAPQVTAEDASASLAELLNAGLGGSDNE
Chain of E. coli RNA polymerase (P0A8V2 whole entry): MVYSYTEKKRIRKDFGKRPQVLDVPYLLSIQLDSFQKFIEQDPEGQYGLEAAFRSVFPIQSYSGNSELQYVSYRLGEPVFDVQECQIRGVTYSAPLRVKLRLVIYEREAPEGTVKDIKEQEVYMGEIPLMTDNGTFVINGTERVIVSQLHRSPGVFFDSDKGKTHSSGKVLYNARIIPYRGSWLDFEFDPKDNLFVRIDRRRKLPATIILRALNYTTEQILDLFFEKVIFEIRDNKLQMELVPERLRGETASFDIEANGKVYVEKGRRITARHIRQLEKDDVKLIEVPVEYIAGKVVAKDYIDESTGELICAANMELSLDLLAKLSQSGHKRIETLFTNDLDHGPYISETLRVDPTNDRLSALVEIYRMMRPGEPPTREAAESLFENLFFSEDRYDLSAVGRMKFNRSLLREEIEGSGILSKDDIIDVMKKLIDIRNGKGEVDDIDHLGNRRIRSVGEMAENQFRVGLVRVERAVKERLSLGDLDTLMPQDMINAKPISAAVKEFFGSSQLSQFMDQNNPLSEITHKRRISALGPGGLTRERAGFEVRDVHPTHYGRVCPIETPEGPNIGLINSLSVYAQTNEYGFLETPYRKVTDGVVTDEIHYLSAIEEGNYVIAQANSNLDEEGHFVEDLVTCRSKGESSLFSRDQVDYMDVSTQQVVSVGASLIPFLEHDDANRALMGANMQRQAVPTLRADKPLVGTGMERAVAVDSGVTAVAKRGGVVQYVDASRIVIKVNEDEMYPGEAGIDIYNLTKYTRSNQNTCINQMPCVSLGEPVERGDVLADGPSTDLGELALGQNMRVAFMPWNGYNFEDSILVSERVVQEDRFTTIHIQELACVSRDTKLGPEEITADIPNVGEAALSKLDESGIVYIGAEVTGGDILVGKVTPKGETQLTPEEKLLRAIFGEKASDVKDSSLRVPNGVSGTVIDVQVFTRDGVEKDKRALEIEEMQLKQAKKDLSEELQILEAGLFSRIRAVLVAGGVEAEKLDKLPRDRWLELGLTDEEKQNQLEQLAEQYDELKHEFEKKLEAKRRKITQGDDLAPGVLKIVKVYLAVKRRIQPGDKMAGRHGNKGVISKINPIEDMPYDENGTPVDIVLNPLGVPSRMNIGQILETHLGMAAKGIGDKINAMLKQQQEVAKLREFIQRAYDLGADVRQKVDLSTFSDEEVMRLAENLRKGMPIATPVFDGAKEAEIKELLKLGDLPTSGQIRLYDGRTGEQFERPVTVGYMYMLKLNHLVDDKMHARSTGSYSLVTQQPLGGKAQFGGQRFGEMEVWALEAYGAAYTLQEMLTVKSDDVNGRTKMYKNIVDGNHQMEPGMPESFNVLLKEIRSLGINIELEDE
Chain of E. coli RNA polymerase (P0A7Z4 whole entry, further chain): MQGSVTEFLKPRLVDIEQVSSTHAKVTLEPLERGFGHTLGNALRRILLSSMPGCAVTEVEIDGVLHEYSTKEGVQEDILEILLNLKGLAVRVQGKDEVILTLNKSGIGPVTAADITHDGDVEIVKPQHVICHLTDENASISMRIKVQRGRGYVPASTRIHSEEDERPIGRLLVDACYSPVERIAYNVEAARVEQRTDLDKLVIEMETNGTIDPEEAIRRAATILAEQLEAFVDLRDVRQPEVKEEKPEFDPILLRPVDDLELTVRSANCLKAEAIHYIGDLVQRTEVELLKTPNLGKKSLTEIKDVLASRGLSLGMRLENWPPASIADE
Chain of E. coli RNA polymerase (P0A800 whole entry, further chain): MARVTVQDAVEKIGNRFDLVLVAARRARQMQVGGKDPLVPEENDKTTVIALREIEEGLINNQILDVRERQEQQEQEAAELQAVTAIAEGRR

Chain of HCV RNA dependent RNA polymerase (RdRp), NS5B (P26663 2420-3010): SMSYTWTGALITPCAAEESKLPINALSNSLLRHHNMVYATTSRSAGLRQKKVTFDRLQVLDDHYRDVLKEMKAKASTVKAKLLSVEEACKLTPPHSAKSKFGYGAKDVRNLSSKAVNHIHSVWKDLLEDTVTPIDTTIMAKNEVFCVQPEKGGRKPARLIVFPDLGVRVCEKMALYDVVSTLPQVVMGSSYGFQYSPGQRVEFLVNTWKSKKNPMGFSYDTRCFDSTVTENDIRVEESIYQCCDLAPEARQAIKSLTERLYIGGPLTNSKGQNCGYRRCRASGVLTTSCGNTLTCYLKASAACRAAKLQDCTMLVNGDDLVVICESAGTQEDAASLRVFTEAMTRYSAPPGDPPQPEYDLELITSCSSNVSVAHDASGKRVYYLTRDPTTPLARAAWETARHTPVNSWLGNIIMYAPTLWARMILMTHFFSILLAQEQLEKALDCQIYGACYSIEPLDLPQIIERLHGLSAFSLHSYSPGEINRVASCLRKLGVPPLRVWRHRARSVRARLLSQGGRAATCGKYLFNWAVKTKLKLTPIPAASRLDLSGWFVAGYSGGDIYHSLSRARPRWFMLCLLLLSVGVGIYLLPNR

| SMILES | extension of [33P]GpC by HCV RdRp (incorporation into RNA product) [1] | further elongation by UTP after incorporation ([1]; same experiment with additional UTP (1 mM)) | effect on RNA synthesis by E. coli RNA polymerase [2] |
| --- | --- | --- | --- |
| Nc1ncnc2c1ncn2[C@@H]1O[C@H](CP(=O)(O)OP(=O)(O)OP(=O)(O)O)[C@@H](O)[C@H]1O [5′d-ATP] | no extension | – | – |
| Nc1ncnc2c1ncn2[C@@H]1O[C@H](COP(=O)(O)OP(=O)(O)OP(=O)(O)O)[C@@H](O)[C@H]1O [ATP] | extension of [^33P]GpC by HCV RdRp was observed | Elongation products by UTP were seen | – |
| O=c1ccn([C@@H]2O[C@@H](CP(=O)(O)OP(=O)(O)OP(=O)(O)O)[C@@H](O)[C@H]2O)c(=O)[nH]1 [Phosphonate (5-deoxy) UTP] | – | – | pseudoterminator of RNA synthesis |
